Test results published in ChEMBL document CHEMBL3407370, “Potent acetylcholinesterase inhibitors: design, synthesis, biological evaluation, and docking study of acridone linked to 1,2,3-triazole derivatives” (Eur J Med Chem, 2015).

How the values were obtained:
[1] = Antioxidant activity assessed as DPPH radical scavenging activity at 700 ug/ml incubated in dark condition measured after 30 mins by UV/vis spectrophotometric analysis relative to control; type: physicochemical; conditions: 0.5 h
Cholinesterase = Cholinesterase (Equus caballus, UniProt P81908); experiment: Inhibition of equine serum butylcholinesterase using acetylthiocholine iodide as substrate after 15 mins by Ellman's method
Sequence of Cholinesterase (P81908 whole entry): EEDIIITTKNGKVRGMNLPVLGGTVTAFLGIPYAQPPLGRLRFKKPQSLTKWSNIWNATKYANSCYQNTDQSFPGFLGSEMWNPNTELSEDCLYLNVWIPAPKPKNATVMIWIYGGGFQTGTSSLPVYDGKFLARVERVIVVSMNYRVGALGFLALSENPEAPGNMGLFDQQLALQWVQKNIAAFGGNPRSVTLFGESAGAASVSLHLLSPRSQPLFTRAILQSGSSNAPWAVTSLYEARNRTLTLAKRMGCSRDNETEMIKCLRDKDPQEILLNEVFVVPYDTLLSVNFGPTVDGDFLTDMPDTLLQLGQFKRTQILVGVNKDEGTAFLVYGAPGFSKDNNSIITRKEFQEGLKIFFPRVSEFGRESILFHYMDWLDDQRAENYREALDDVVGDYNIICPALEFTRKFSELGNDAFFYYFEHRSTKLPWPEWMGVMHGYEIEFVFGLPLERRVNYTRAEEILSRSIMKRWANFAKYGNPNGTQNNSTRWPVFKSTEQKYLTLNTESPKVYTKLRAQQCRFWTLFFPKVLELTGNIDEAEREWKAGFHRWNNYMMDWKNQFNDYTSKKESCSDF

Acetylcholinesterase = Acetylcholinesterase (Electrophorus electricus, UniProt O42275); experiment: Inhibition of electric eel acetylcholinesterase using acetylthiocholine iodide as substrate after 15 mins by Ellman's method
Sequence of Acetylcholinesterase (O42275 whole entry): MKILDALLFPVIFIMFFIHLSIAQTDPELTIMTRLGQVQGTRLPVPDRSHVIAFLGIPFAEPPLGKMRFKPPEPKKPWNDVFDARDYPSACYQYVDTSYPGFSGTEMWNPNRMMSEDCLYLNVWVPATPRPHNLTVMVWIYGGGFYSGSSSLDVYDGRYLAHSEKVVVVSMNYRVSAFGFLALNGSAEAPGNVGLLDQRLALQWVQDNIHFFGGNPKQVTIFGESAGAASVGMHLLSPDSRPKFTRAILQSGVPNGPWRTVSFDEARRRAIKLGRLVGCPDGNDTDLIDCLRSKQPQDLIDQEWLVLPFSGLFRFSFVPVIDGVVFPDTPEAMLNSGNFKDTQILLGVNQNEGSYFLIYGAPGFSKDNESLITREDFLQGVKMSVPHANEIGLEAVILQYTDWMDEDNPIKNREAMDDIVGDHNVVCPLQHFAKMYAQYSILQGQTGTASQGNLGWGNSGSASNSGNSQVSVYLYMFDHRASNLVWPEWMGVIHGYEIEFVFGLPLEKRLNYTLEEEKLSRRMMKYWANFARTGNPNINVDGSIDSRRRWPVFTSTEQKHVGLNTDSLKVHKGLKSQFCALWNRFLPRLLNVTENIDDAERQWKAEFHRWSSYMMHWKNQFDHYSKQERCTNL

[2] = Antioxidant activity assessed as DPPH radical scavenging activity incubated in dark condition measured after 30 mins by UV/vis spectrophotometric analysis; type: physicochemical

Compound | inhibition (INH) [1] [%] | IC50 (Cholinesterase) [µM] | IC50 (Acetylcholinesterase) [µM] | EC50 [2] [mg/L]
O=c1c2ccccc2n(Cc2cn(Cc3ccccc3)nn2)c2ccc(Cl)cc12 | 26.6 | ≥ 100 | 88.1 | > 700
Cc1ccc2c(c1)c(=O)c1ccccc1n2Cc1cn(Cc2ccc(Cl)cc2)nn1 | – | 87.2 | 10.8 | –
O=c1c2ccccc2n(Cc2cn(Cc3ccccc3)nn2)c2ccccc12 | – | ≥ 100 | ≥ 100 | –
Cc1ccc2c(c1)c(=O)c1ccccc1n2Cc1cn(Cc2ccccc2)nn1 | 7.09 | ≥ 100 | ≥ 100 | > 333
O=c1c2ccccc2n(Cc2cn(Cc3ccc(Cl)cc3)nn2)c2ccc(Br)cc12 | – | ≥ 100 | 45.6 | –
O=c1c2ccccc2n(Cc2cn(Cc3ccccc3)nn2)c2c(F)cccc12 | 14.79 | ≥ 100 | ≥ 100 | > 700
O=c1c2ccccc2n(Cc2cn(Cc3ccc([N+](=O)[O-])cc3)nn2)c2ccc(Br)cc12 | – | ≥ 100 | 52.8 | –
O=c1c2ccccc2n(Cc2cn(Cc3ccc(Cl)cc3)nn2)c2ccc(Cl)cc12 | – | ≥ 100 | 17.7 | –
O=c1c2ccccc2n(Cc2cn(Cc3ccc(Cl)cc3)nn2)c2c(F)cccc12 | – | ≥ 100 | 24.5 | –
COc1ccc2c(c1)c(=O)c1ccccc1n2Cc1cn(Cc2ccc(Cl)cc2)nn1 | – | ≥ 100 | 7.31 | –
COc1ccc2c(c1)c(=O)c1ccccc1n2Cc1cn(Cc2ccccc2)nn1 | 8.65 | ≥ 100 | 24 | > 700
O=c1c2ccccc2n(Cc2cn(Cc3ccc(Cl)cc3)nn2)c2ccccc12 | 21.78 | ≥ 100 | 59.7 | > 333
O=c1c2ccccc2n(Cc2cn(Cc3ccc([N+](=O)[O-])cc3)nn2)c2ccc(Cl)cc12 | – | ≥ 100 | 38.3 | –
O=c1c2ccccc2n(Cc2cn(Cc3ccccc3)nn2)c2ccc(Br)cc12 | – | ≥ 100 | 68.1 | –
